From patent publication US7148236B2, “Modulators of acetylcholine receptors” (Merck & Co., Inc., priority 2002, dated 2006)

CN1[C@@H]2CC[C@H]1C[C@H](Sc1ccc3[nH]c(=O)[nH]c(=O)c3c1)C2
melting point: > 260 °C

CCCn1c(=S)[nH]c2ccc(S[C@@H]3C[C@H]4CC[C@@H](C3)N4C)c(Cl)c21
melting point: 131.4 to 133.9 °C

CN1[C@@H]2CC[C@H]1C[C@H](Sc1cc3c(cc1Cl)[nH]c(=O)n3C)C2
melting point: 206.4 to 207.2 °C

CN1[C@@H]2CC[C@H]1C[C@H](Sc1ccc3[nH]c(=O)n(C)c3c1Cl)C2.Cl
melting point: > 260 °C

CN1[C@@H]2CC[C@H]1C[C@H](Sc1ccc3[nH]c(=O)[nH]c3c1)C2
melting point: 178.5 to 181.6 °C

CC(C)n1c(=S)[nH]c2ccc(S[C@@H]3C[C@H]4CC[C@@H](C3)N4C)c(Cl)c21
melting point: 228.9 to 230.9 °C
